Laboratory results from patent US12427159B2, “Hydroxypyrrolidine-substituted arylsulfonamide compounds with selective activity in voltage-gated sodium channels” (Merck Sharp & Dohme LLC, priority 2019, dated 2025).
Where “and” joins values, the source holds several entries; their conditions need not be identical. Equal entries are not always repeated.

What was measured:
human Nav1.7 channels = target: T1, human Nav1.7 channels (Homo sapiens, UniProt Q15858); experiment: IonWorks Quattro automated patch-clamp, inactivated state block of Nav1.7; assay type: cell-based; details: human Nav1.7 stably expressed in HEK 293 cells, double-pulse protocol, read-out: potency for the Nav 1.7 sodium ion channel (as measured by IonWorks)
T1 construct: expressed in transfected cells; host or cells: HEK 293
T1 sequence (Q15858 whole entry): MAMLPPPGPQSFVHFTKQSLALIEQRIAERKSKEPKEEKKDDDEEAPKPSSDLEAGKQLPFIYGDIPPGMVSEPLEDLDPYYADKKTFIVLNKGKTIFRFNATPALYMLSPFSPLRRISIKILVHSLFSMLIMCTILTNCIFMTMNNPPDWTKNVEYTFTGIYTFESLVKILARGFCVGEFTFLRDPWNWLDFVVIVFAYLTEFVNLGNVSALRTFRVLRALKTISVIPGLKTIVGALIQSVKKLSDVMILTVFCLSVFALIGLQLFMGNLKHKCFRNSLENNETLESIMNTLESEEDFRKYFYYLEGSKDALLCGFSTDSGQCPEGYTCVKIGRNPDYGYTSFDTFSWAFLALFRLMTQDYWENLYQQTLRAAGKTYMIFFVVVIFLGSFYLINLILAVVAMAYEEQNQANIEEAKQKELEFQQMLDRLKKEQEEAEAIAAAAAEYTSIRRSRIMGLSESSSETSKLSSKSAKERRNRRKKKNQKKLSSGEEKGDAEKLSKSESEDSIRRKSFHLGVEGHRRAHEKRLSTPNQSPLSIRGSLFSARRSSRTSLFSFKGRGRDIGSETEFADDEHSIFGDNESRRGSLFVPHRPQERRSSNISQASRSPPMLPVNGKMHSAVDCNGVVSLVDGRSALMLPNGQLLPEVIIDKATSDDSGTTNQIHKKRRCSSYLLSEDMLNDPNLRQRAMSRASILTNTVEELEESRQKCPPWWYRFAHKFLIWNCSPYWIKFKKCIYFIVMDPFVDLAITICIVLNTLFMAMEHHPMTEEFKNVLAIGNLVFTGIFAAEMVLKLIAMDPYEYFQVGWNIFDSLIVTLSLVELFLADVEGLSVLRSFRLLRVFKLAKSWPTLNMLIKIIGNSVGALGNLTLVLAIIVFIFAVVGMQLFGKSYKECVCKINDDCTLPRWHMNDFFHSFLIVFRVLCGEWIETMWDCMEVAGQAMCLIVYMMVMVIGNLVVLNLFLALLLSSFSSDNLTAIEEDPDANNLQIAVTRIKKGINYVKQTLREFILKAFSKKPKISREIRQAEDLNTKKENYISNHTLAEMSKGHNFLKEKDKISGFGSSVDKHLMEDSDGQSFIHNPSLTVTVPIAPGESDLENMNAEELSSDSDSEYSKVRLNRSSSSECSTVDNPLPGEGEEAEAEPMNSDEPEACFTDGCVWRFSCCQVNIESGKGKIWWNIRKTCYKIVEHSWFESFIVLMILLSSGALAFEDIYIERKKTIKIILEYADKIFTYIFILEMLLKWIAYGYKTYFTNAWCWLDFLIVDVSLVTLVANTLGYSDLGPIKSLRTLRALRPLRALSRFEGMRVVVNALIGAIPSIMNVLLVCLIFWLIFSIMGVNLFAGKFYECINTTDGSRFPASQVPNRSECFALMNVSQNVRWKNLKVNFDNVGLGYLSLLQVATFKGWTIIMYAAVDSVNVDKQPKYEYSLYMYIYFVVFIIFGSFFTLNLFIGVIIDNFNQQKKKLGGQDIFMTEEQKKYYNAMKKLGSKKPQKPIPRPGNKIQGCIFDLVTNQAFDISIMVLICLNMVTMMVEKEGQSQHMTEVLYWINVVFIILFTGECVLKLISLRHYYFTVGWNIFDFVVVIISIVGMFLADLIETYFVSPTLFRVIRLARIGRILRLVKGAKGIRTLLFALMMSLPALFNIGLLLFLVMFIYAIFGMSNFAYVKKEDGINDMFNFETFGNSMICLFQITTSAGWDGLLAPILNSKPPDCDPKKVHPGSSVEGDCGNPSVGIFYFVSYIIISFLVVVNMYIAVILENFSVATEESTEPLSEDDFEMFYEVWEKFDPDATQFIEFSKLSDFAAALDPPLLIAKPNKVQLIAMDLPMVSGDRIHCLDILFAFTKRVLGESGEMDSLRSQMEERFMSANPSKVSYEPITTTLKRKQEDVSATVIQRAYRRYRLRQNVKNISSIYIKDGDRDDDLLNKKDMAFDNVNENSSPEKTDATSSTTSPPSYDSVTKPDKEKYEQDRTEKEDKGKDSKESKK
Description: (§1) IonWorks® Experimental Procedure
(§2) Compounds were tested on human Nav1.7 and Nav1.5 channels stably expressed in HEK 293 cells. Sodium current measurements on IonWorks Quattro: An automated patch-clamp assay on the IonWorks Quattro platform (Molecular Devices) was used to measure state-dependent inhibition of human Nav1.7 and 1.5 channels. Cells were sealed on a planar substrate using the Population Patch […] (PPC) technology. Electrical access was obtained using both nystatin and amphotericin. A double-pulse protocol was used for the determination of IC50 values for inactivated state block. Nav1.7 and Nav1.5 expressing cells were voltage clamped at −100 mV and −110 mV, respectively. A depolarizing prepulse to −10 mV (Nav1.7) or −30 mV (Nav1.5) for 1000 ms followed by a 10 ms repolarization to −100 mV (Nav1.7) or −110 mV (Nav1.5) was given to generate fractional channel inactivation of ˜ 50%, followed by a 10 ms test pulse to −10 mV (Nav1.7) or −30 mV (Nav1.5) to measure peak current in control conditions and after compound addition. The following recording solutions were used (mM). External: 150 NaCl, 2 CaCl2), 5 KCl, 1 Mg Cl2, 10 HEPES, 12 Dextrose; internal: 120 CsF, 30 CsCl, 10 EGTA, 5 HEPES, 5 NaF, 2 MgCl2.
(§3) For all electrophysiology experiments, offline analysis was used to determine percent inhibition as a function of drug concentration. IC50 values were determined by fitting to the Hill equation.
(§4) The various compounds in Examples 1 through 4 and Tables 1 through 3 exemplified above were assayed for activity and selectivity using the foregoing IonWorks® technique. The results are reported in the following paragraph in a format expressing the identification of the compound with reference Example and compound (e.g. Ex 1-9 is Example 1, compound 9) followed by the observed potency in nM and the ratio of Nav1.7 potency:Nav 1.5 potency as described here. […]

human Nav1.5 channels = target: T2, human Nav1.5 channels (Homo sapiens, UniProt Q14524); experiment: IonWorks Quattro automated patch-clamp, Nav1.5 (selectivity versus Nav1.7); assay type: cell-based; details: selectivity Nav1.7 over Nav1.5, both by IonWorks in HEK 293 cells
T2 construct: expressed in transfected cells; host or cells: HEK 293
T2 sequence (Q14524 whole entry): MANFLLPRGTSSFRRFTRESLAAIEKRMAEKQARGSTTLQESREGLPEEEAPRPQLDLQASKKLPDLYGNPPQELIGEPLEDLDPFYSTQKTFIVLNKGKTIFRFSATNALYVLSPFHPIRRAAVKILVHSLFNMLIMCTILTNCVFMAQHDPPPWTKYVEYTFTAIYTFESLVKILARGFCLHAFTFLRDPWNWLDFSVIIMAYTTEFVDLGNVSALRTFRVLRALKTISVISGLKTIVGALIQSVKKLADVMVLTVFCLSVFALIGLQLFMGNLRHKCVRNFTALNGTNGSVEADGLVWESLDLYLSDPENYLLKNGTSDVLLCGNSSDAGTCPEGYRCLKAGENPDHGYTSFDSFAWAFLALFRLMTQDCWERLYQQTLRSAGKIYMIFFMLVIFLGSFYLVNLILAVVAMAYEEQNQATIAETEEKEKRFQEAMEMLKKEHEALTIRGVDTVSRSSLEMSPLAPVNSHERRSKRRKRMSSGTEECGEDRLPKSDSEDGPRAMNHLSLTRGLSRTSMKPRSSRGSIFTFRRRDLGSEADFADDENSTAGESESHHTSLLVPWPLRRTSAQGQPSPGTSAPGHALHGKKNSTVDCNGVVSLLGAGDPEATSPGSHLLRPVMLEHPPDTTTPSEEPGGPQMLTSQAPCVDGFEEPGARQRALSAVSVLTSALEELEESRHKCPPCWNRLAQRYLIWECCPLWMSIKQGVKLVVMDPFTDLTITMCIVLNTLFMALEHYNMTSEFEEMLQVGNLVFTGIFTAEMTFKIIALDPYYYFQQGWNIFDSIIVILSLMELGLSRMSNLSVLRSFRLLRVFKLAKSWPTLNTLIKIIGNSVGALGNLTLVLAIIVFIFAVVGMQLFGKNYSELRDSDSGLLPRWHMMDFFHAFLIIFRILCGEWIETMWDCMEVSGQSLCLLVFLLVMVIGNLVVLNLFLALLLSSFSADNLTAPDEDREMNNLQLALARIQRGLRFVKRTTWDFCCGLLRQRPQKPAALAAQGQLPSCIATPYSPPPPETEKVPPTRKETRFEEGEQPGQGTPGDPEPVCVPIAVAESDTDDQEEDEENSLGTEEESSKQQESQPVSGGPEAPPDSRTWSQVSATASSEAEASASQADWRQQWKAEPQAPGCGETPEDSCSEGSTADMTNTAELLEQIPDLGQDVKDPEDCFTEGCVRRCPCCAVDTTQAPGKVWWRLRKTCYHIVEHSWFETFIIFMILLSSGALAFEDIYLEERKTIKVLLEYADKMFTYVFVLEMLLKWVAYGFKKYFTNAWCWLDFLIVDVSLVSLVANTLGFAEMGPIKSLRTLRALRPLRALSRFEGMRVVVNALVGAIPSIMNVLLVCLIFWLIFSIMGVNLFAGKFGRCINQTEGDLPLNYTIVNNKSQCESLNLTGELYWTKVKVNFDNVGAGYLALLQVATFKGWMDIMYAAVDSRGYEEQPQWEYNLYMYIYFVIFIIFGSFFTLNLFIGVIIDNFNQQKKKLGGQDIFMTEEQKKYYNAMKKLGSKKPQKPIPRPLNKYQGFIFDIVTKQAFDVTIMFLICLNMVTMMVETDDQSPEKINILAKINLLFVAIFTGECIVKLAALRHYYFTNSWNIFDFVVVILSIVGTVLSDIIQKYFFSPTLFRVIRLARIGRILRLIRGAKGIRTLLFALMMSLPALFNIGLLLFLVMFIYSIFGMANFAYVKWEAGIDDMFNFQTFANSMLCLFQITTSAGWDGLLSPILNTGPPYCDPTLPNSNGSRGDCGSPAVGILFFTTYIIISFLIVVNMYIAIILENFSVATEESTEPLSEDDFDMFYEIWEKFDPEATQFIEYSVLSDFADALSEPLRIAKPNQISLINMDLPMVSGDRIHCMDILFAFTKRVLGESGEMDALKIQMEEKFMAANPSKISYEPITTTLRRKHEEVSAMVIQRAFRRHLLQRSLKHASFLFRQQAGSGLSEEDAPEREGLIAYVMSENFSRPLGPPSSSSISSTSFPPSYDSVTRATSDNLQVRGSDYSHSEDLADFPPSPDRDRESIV
Description: as §1, §2, §3, §4

Row | SMILES | IC50 (human Nav1.7 channels) [nM] | ratio of Nav1.7 potency:Nav 1.5 potency (human Nav1.5 channels)
1 | O=S(=O)(Nc1nccs1)c1cc(Cl)c(NC[C@]2(Cc3ccccc3)C[C@H](O)CN2)cc1F [Ex1-9, 4-((((2S,4S)-2-Benzyl-4-Hydroxypyrrolidin-2-Yl)Methyl)Amino)-5-Chloro-2-Fluoro-N-(Thiazol-2-Yl)Benzenesulfonamide] | 8 | 3976 and > 3976
2 | O=S(=O)(Nc1nccs1)c1cc(Cl)c(NC[C@]2(Cc3cccc(Br)c3)C[C@H](O)CN2)cc1F [Ex1-30, 4-((((2S,4S)-2-(3-bromobenzyl)-4-hydroxypyrrolidin-2-yl)methyl)amino)-5-chloro-2-fluoro-N-(thiazol-2-yl) benzenesulfonamide] | 7 | 1220
3 | COc1cccc(C[C@@]2(CNc3cc(F)c(S(=O)(=O)Nc4nccs4)cc3Cl)C[C@H](O)CN2)c1 [Ex1-31, 5-chloro-2-fluoro-4-((((2S,4S)-4-hydroxy-2-(3-methoxybenzyl)pyrrolidin-2-yl)methyl)amino)-N-(thiazol-2-yl) benzenesulfonamide] | 7 | 4714
4 | O=S(=O)(Nc1nccs1)c1cc(Cl)c(NC[C@]2(Cc3cccc(F)c3)C[C@H](O)CN2)cc1F [Ex1-33, 5-chloro-2-fluoro-4-((((2S,4S)-2-(3-fluorobenzyl)-4-hydroxypyrrolidin-2-yl)methyl)amino)-N-(thiazol-2-yl) benzenesulfonamide] | 7 | 1714
5 | NCc1ccc(C[C@@]2(CNc3cc(F)c(S(=O)(=O)Nc4nccs4)cc3Cl)C[C@H](O)CN2)cc1 [Ex2-3, 4-((((2S,4S)-2-(4-(Aminomethyl) Benzyl)-4-Hydroxypyrrolidin-2-Yl) Methyl)Amino)-5-Chloro-2-Fluoro-N-(Thiazol-2-Yl)Benzenesulfonamide] | 38 | 868
6 | N#Cc1cccc(C[C@@]2(CNc3cc(F)c(S(=O)(=O)Nc4nccs4)cc3Cl)C[C@H](O)CN2)c1 [Ex2-4, 5-chloro-4-((((2S,4S)-2-(3-cyanobenzyl)-4-hydroxypyrrolidin-2-yl)methyl)amino)-2-fluoro-N-(thiazol-2-yl)benzenesulfonamide] | 11 | 2909
7 | NCc1cccc(C[C@@]2(CNc3cc(F)c(S(=O)(=O)Nc4nccs4)cc3Cl)C[C@H](O)CN2)c1 [Ex2-5, 4-((((2S,4S)-2-(3-(aminomethyl)benzyl)-4-hydroxypyrrolidin-2-yl)methyl)amino)-5-chloro-2-fluoro-N-(thiazol-2-yl)benzenesulfonamide] | 4 | 6250
8 | O=S(=O)(Nc1nccs1)c1cc(Cl)c(NC[C@]2(Cc3ccc(-c4ccccn4)cc3)C[C@H](O)CN2)cc1F [Ex3-2, 5-Chloro-2-Fluoro-4-((((2S,4S)-4-Hydroxy-2-(4-(Pyridin-2-Yl)Benzyl)Pyrrolidin-2-Yl)Methyl)Amino)-N-(Thiazol-2-Yl)Benzenesulfonamide] | 7 | 543
9 | O=S(=O)(Nc1nccs1)c1cc(Cl)c(NC[C@]2(Cc3ccc(-c4ncco4)cc3)C[C@H](O)CN2)cc1F [Ex3-3, 5-chloro-2-fluoro-4-((((2S,4S)-4-hydroxy-2-(4-(oxazol-2-yl)benzyl)pyrrolidin-2-yl)methyl)amino)-N-(thiazol-2-yl)benzenesulfonamide] | 9 | 933
10 | O=S(=O)(Nc1nccs1)c1cc(Cl)c(NC[C@]2(Cc3ccc(-c4ccn[nH]4)cc3)C[C@H](O)CN2)cc1F [Ex4-2, 4-((((2S,4S)-2-(4-(1H-Pyrazol-5-Yl)Benzyl)-4-Hydroxypyrrolidin-2-Yl) Methyl)Amino)-5-Chloro-2-Fluoro-N-(Thiazol-2-Yl)Benzenesulfonamide] | 18 | 367

The remaining compounds from weak to strong by IC50 (human Nav1.7 channels), led by results:

Row | IC50 (human Nav1.7 channels) [nM] | SMILES | ratio of Nav1.7 potency:Nav 1.5 potency (human Nav1.5 channels)
11 | 4 | O=S(=O)(Nc1nccs1)c1cc(Cl)c(NC[C@]2(CC3CCC3)C[C@H](O)CN2)cc1F [Ex1-15, 5-Chloro-4-((((2S,4S)-2-(Cyclobutylmethyl)-4-Hydroxypyrrolidin-2 Yl)Methyl)Amino)-2-Fluoro-N-(Thiazol-2-Yl)Benzenesulfonamide] | > 7500
12 | 4 | O=S(=O)(Nc1nccs1)c1cc(Cl)c(NC[C@]2(Cc3ccc(Br)cc3)C[C@H](O)CN2)cc1F [Ex1-22, 4-((((2S,4S)-2-(4-Bromobenzyl)-4-Hydroxypyrrolidin-2-Yl)Methyl)Amino)-5-Chloro-2-Fluoro-N-(Thiazol-2-Yl)Benzenesulfonamide] | 84
13 | 4 | CC(C)(C)CC[C@@]1(CNc2cc(F)c(S(=O)(=O)Nc3nccs3)cc2Cl)C[C@H](O)CN1 [Ex1-34, 5-chloro-4-((((2S,4S)-2-(3,3-dimethylbutyl)-4-hydroxypyrrolidin-2-yl)methyl)amino)-2-fluoro-N-(thiazol-2-yl) benzenesulfonamide] | 6750
14 | 4 | N#Cc1ccc(C[C@@]2(CNc3cc(F)c(S(=O)(=O)Nc4nccs4)cc3Cl)C[C@H](O)CN2)cc1 [Ex2-2, 5-Chloro-4-((((2S,4S)-2-(4-Cyanobenzyl)-4-Hydroxypyrrolidin-2-Yl)Methyl)Amino)-2-Fluoro-N-(Thiazol-2-Yl)Benzenesulfonamide] | 3000
15 | 3 | O=S(=O)(Nc1nccs1)c1cc(Cl)c(NC[C@]2(CCc3ccccc3)C[C@H](O)CN2)cc1F [Ex1-28, 5-Chloro-2-Fluoro-4-((((2S,4S)-4-Hydroxy-2-Phenethylpyrrolidin-2-Yl)Methyl)-Amino)-N-(Thiazol-2-Yl)Benzenesulfonamide] | 11000
16 | 2 | O=S(=O)(Nc1nccs1)c1cc(Cl)c(NC[C@]2(CCCc3ccccc3)C[C@H](O)CN2)cc1F [Ex1-29, 5-chloro-2-fluoro-4-((((2S,4S)-4-hydroxy-2-(3-phenylpropyl)-pyrrolidin-2-yl)methyl)amino)-N-(thiazol-2-yl)-benzene-sulfonamide] | 10500
17 | 2 | Cc1cccc(C[C@@]2(CNc3cc(F)c(S(=O)(=O)Nc4nccs4)cc3Cl)C[C@H](O)CN2)c1 [Ex1-32] | 16500
